We go through 10 molecules from patent publication US9605004B2, “Chemical compounds” (SYNGENTA LIMITED, priority 2013, dated 2017).

Experiment [1] deals with a variety of test species. As to the kind of experiment: Pre-emergence herbicidal activity (Example 8a, Table 2). The note with it: application pre-emergence, rate 1000 g/ha, evaluated after 13 days. Also noted: key: 0 = no damage to plant, 5 = total damage to plant. The format is in vivo. An outline of the steps:
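Seeds sown in standard soil in pots, held one day in glasshouse (24/16 °C day/night, 14 h light, 65% humidity), then sprayed with aqueous solution of compound formulated in acetone/water 50:50 with 0.5% Tween 20. Grown on under same conditions, watered twice daily; damage scored after 13 days (0 = none, 5 = total).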

Experiment [2] concerns a variety of test species. As to the kind of experiment: Post-emergence herbicidal activity (Example 8b, Table 3). The format is in vivo. The note with it: application post-emergence, rate 1000 g/ha, evaluated after 13 days, scale 0-5; for Herbicidal damage score, ABUTH: Abutilon theophrasti; for Herbicidal damage score, ALOMY: Alopecurus myosuroides; for Herbicidal damage score, AMARE: Amaranthus retroflexus; for Herbicidal damage score, ECHCG: Echinochloa crus-galli; for Herbicidal damage score, SETFA: Setaria faberi; for Herbicidal damage score, ZEAMX: Zea mays. In outline:
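Damage rating 0 (none) to 5 (total), assessed 13 days after spraying. Plants received the compound in acetone/water 50:50 with 0.5% Tween 20 at 8 days post-sowing, then were kept at 24/16 °C, 14 h photoperiod, 65% RH.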

`COC1=C(C)C(O)N(c2cc(C(C)(C)C)n(C)n2)C1=O` (stereo not drawn) [Compound H1, 1-(5-tert-butyl-1-methyl-pyrazol-3-yl)-2-hydroxy-4-methoxy-3-methyl-2H-pyrrol-5-one]: in experiment [1], the “Pre-emergence herbicidal activity, damage score ABUTH” value turned out to be 5; the “Pre-emergence herbicidal activity, damage score ALOMY” value was determined as 4; the “Pre-emergence herbicidal activity, damage score AMARE” value amounted to 5; the “Pre-emergence herbicidal activity, damage score ECHCG” value is 5. Also, in experiment [1], the “Pre-emergence herbicidal activity, damage score SETFA” value is 5 and the “Pre-emergence herbicidal activity, damage score ZEAMX” value stood at 4. In addition, in experiment [2], the “Herbicidal damage score, ABUTH” value is on record as 5; the “Herbicidal damage score, ALOMY” value amounted to 5; the “Herbicidal damage score, AMARE” value amounted to 5; the “Herbicidal damage score, ECHCG” value was determined as 5. Further, in experiment [2], the “Herbicidal damage score, SETFA” value came to 5 and the “Herbicidal damage score, ZEAMX” value is listed as 4.

As to `COC1=C(C)C(O)N(c2cc(C(C)(C)C)n(C)n2)C1=O` (stereo not drawn) [Compound H2], in experiment [1], the “Pre-emergence herbicidal activity, damage score ALOMY” value is given as 4 and the “Pre-emergence herbicidal activity, damage score ZEAMX” value was found to be 4. Further, the “Herbicidal damage score, ZEAMX” value in experiment [2] came out at 4.

Regarding `COC1=C(C)C(O)N(c2nn(C)c(C(C)(C)C)c2C#N)C1=O` (stereo not drawn) [Compound H3], in experiment [1], the “Pre-emergence herbicidal activity, damage score ABUTH” value is 4; the “Pre-emergence herbicidal activity, damage score ALOMY” value stood at 4; the “Pre-emergence herbicidal activity, damage score AMARE” value is reported as 4; the “Pre-emergence herbicidal activity, damage score ECHCG” value is listed as 5. Moreover, in experiment [1], the “Pre-emergence herbicidal activity, damage score SETFA” value is given as 4 and the “Pre-emergence herbicidal activity, damage score ZEAMX” value was found to be 1. In addition, in experiment [2], the “Herbicidal damage score, ABUTH” value is given as 5; the “Herbicidal damage score, ALOMY” value was found to be 5; the “Herbicidal damage score, AMARE” value worked out at 4; the “Herbicidal damage score, ECHCG” value was determined as 5. For the same molecule, in experiment [2], the “Herbicidal damage score, SETFA” value is 5 and the “Herbicidal damage score, ZEAMX” value came to 3.

As for `COC1=C(C)C(O)N(c2cc(C(F)(F)F)n(C)n2)C1=O` (stereo not drawn) [Compound H4], in experiment [1], the “Pre-emergence herbicidal activity, damage score ABUTH” value was 5; the “Pre-emergence herbicidal activity, damage score ALOMY” value amounted to 4; the “Pre-emergence herbicidal activity, damage score AMARE” value was 5; the “Pre-emergence herbicidal activity, damage score ECHCG” value was determined as 5. Moreover, in experiment [1], the “Pre-emergence herbicidal activity, damage score SETFA” value is 5 and the “Pre-emergence herbicidal activity, damage score ZEAMX” value was determined as 4. Also, in experiment [2], the “Herbicidal damage score, ABUTH” value turned out to be 5; the “Herbicidal damage score, ALOMY” value is recorded as 5; the “Herbicidal damage score, AMARE” value was 5; the “Herbicidal damage score, ECHCG” value is listed as 5. In experiment [2], the “Herbicidal damage score, SETFA” value was found to be 5 and the “Herbicidal damage score, ZEAMX” value was 5.

Take `CC1=C(Br)C(=O)N(c2cc(C(C)(C)C)[nH]n2)C1O` (stereo not drawn) [Compound I1]: in experiment [1], the “Pre-emergence herbicidal activity, damage score ABUTH” value stood at 5; the “Pre-emergence herbicidal activity, damage score ALOMY” value is recorded as 4; the “Pre-emergence herbicidal activity, damage score AMARE” value was 5; the “Pre-emergence herbicidal activity, damage score ECHCG” value was found to be 5. For the same molecule, in experiment [1], the “Pre-emergence herbicidal activity, damage score SETFA” value came to 4 and the “Pre-emergence herbicidal activity, damage score ZEAMX” value stood at 3. Besides, in experiment [2], the “Herbicidal damage score, ABUTH” value came out at 5; the “Herbicidal damage score, ALOMY” value worked out at 4; the “Herbicidal damage score, AMARE” value came to 5; the “Herbicidal damage score, ECHCG” value is recorded as 5. Moreover, in experiment [2], the “Herbicidal damage score, SETFA” value came to 5 and the “Herbicidal damage score, ZEAMX” value is recorded as 5.

On to `CC1=C(Br)C(=O)N(c2cc(C(C)(C)C)n(C)n2)C1O` (stereo not drawn) [Compound J1], for which, in experiment [1], the “Pre-emergence herbicidal activity, damage score ABUTH” value amounted to 5; the “Pre-emergence herbicidal activity, damage score ALOMY” value came to 3; the “Pre-emergence herbicidal activity, damage score AMARE” value amounted to 5; the “Pre-emergence herbicidal activity, damage score ECHCG” value is recorded as 5. Besides, in experiment [1], the “Pre-emergence herbicidal activity, damage score SETFA” value was found to be 4 and the “Pre-emergence herbicidal activity, damage score ZEAMX” value was 2. In experiment [2], the “Herbicidal damage score, ABUTH” value is 5; the “Herbicidal damage score, ALOMY” value is on record as 5; the “Herbicidal damage score, AMARE” value came out at 5; the “Herbicidal damage score, ECHCG” value amounted to 5. Besides, in experiment [2], the “Herbicidal damage score, SETFA” value is 5 and the “Herbicidal damage score, ZEAMX” value was determined as 4.

In the case of `CC1=C(Br)C(=O)N(c2cc(C(C)(C)C)n(C)n2)C1O` (stereo not drawn) [Compound J2], in experiment [1], the “Pre-emergence herbicidal activity, damage score ABUTH” value amounted to 5; the “Pre-emergence herbicidal activity, damage score ALOMY” value turned out to be 3; the “Pre-emergence herbicidal activity, damage score AMARE” value is on record as 5; the “Pre-emergence herbicidal activity, damage score ECHCG” value is reported as 5. In experiment [1], the “Pre-emergence herbicidal activity, damage score SETFA” value worked out at 4 and the “Pre-emergence herbicidal activity, damage score ZEAMX” value is 2. In experiment [2], the “Herbicidal damage score, ABUTH” value turned out to be 5; the “Herbicidal damage score, ALOMY” value turned out to be 5; the “Herbicidal damage score, AMARE” value amounted to 5; the “Herbicidal damage score, ECHCG” value worked out at 5. In experiment [2], the “Herbicidal damage score, SETFA” value came out at 5 and the “Herbicidal damage score, ZEAMX” value came out at 4.

Regarding `CC(C)=CCc1cc(N2C(=O)C(Br)=C(C)C2O)nn1C` (stereo not drawn) [Compound J3], in experiment [1], the “Pre-emergence herbicidal activity, damage score ABUTH” value came out at 0; the “Pre-emergence herbicidal activity, damage score ALOMY” value is 0; the “Pre-emergence herbicidal activity, damage score AMARE” value is given as 0; the “Pre-emergence herbicidal activity, damage score ECHCG” value worked out at 0. Besides, in experiment [1], the “Pre-emergence herbicidal activity, damage score SETFA” value came to 0 and the “Pre-emergence herbicidal activity, damage score ZEAMX” value is 0. In experiment [2], the “Herbicidal damage score, ABUTH” value is recorded as 4; the “Herbicidal damage score, ALOMY” value was 1; the “Herbicidal damage score, AMARE” value is on record as 2; the “Herbicidal damage score, ECHCG” value was 2. In addition, in experiment [2], the “Herbicidal damage score, SETFA” value is recorded as 4 and the “Herbicidal damage score, ZEAMX” value is 0.

With `CC1=C(Br)C(=O)N(c2cc(C(F)(F)F)n(C)n2)C1O` (stereo not drawn) [Compound J4], in experiment [1], the “Pre-emergence herbicidal activity, damage score ABUTH” value was determined as 5; the “Pre-emergence herbicidal activity, damage score ALOMY” value is on record as 4; the “Pre-emergence herbicidal activity, damage score AMARE” value worked out at 5; the “Pre-emergence herbicidal activity, damage score ECHCG” value came out at 4. Besides, in experiment [1], the “Pre-emergence herbicidal activity, damage score SETFA” value is 5 and the “Pre-emergence herbicidal activity, damage score ZEAMX” value was 4. In addition, in experiment [2], the “Herbicidal damage score, ABUTH” value worked out at 5; the “Herbicidal damage score, ALOMY” value is on record as 5; the “Herbicidal damage score, AMARE” value is reported as 5; the “Herbicidal damage score, ECHCG” value worked out at 5. In experiment [2], the “Herbicidal damage score, SETFA” value came to 5 and the “Herbicidal damage score, ZEAMX” value turned out to be 5.

In the case of `CC1=C(Br)C(=O)N(c2nn(C)c(C(C)(C)C)c2C#N)C1O` (stereo not drawn) [Compound L1], in experiment [1], the “Pre-emergence herbicidal activity, damage score ABUTH” value was 5; the “Pre-emergence herbicidal activity, damage score ALOMY” value was 4; the “Pre-emergence herbicidal activity, damage score AMARE” value turned out to be 5; the “Pre-emergence herbicidal activity, damage score ECHCG” value is 5. In addition, in experiment [1], the “Pre-emergence herbicidal activity, damage score SETFA” value is reported as 5 and the “Pre-emergence herbicidal activity, damage score ZEAMX” value is 3. For the same molecule, in experiment [2], the “Herbicidal damage score, ABUTH” value stood at 5; the “Herbicidal damage score, ALOMY” value came to 5; the “Herbicidal damage score, AMARE” value came to 5; the “Herbicidal damage score, ECHCG” value turned out to be 5. In experiment [2], the “Herbicidal damage score, SETFA” value stood at 5 and the “Herbicidal damage score, ZEAMX” value was 3.
